Data reported in ChEMBL document CHEMBL5357031, “Design and Synthesis of Cytotoxic Water-Soluble Rocaglaol Derivatives against HEL Cells by Inhibiting Fli-1” (J Nat Prod, 2024).

What was measured:
[1] = tested on: HEL; assay: Induction of apoptosis in HEL cells assessed as late apoptotic cells at 0.2 uM incubated for 48 hrs by Annexin V/PI staining based flow cytometry (reference value: 1.83 %); format: functional, Homo sapiens
[2] = tested on: HEL; assay: Induction of apoptosis in HEL cells assessed as necrotic cells at 0.2 uM incubated for 48 hrs by Annexin V/PI staining based flow cytometry (reference value: 0.92 %); format: functional, Homo sapiens
[3] = tested on: HEL; assay: Induction of cell cycle arrest in HEL cells assessed as cell accumulation at G1 phase at 0.1 uM incubated for 48 hrs by […] (reference value: 54.17 %); format: functional, Homo sapiens
[4] = tested on: HEL; assay: Induction of cell cycle arrest in HEL cells assessed as cell accumulation at G2/M phase at 0.4 uM incubated for 24 hrs by […] (reference value: 16.18 %); format: functional, Homo sapiens
[5] = tested on: HEL; assay: Induction of apoptosis in HEL cells assessed as early apoptotic cells at 0.1 uM incubated for 48 hrs by Annexin V/PI staining based flow cytometry (reference value: 1.62 %); format: functional, Homo sapiens
[6] = tested on: HEL; assay: Induction of apoptosis in HEL cells assessed as late apoptotic cells at 0.4 uM incubated for 48 hrs by Annexin V/PI staining based flow cytometry (reference value: 1.83 %); format: functional, Homo sapiens
[7] = tested on: HEL; assay: Induction of apoptosis in HEL cells assessed as early apoptotic cells at 0.1 uM incubated for 24 hrs by Annexin V/PI staining based flow cytometry (reference value: 1.47 %); format: functional, Homo sapiens
[8] = tested on: HEL; assay: Induction of cell cycle arrest in HEL cells assessed as cell accumulation at S phase at 0.2 uM incubated for 24 hrs by […] (reference value: 16.18 %); format: functional, Homo sapiens
[9] = tested on: HEL; assay: Induction of cell cycle arrest in HEL cells assessed as cell accumulation at G1 phase at 0.2 uM incubated for 48 hrs by […] (reference value: 54.17 %); format: functional, Homo sapiens
[10] = tested on: HEL; assay: Induction of cell cycle arrest in HEL cells assessed as cell accumulation at S phase at 0.1 uM incubated for 24 hrs by […] (reference value: 16.18 %); format: functional, Homo sapiens
[11] = tested on: HEL; assay: Induction of cell cycle arrest in HEL cells assessed as cell accumulation at G1 phase at 0.2 uM incubated for 24 hrs by Western blot analysis (reference value: 39.11 %); format: functional, Homo sapiens
[12] = tested on: HEL; assay: Cytotoxicity against HEL cells assessed as cell growth inhibition incubated for 72 hrs by MTT assay; format: functional, cell-based, Homo sapiens; settings: hel
[13] = tested on: HEL; assay: Induction of apoptosis in HEL cells assessed as late apoptotic cells at 0.1 uM incubated for 48 hrs by Annexin V/PI staining based flow cytometry (reference value: 1.83 %); format: functional, Homo sapiens
[14] = tested on: HEL; assay: Induction of cell cycle arrest in HEL cells assessed as cell accumulation at G2/M phase at 0.2 uM incubated for 48 hrs by […] (reference value: 20.36 %); format: functional, Homo sapiens
[15] = tested on: HEL; assay: Induction of apoptosis in HEL cells assessed as early apoptotic cells at 0.2 uM incubated for 48 hrs by Annexin V/PI staining based flow cytometry (reference value: 1.62 %); format: functional, Homo sapiens
[16] = tested on: HEL; assay: Induction of apoptosis in HEL cells assessed as viable cells at 0.4 uM incubated for 48 hrs by Annexin V/PI staining based flow cytometry (reference value: 95.63 %); format: functional; settings: Homo sapiens, read-out: Activity
[17] = tested on: HEL; assay: Induction of apoptosis in HEL cells assessed as necrotic cells at 0.1 uM incubated for 48 hrs by Annexin V/PI staining based flow cytometry (reference value: 0.92 %); format: functional, Homo sapiens
[18] = tested on: HEL; assay: Induction of apoptosis in HEL cells assessed as early apoptotic cells at 0.4 uM incubated for 24 hrs by Annexin V/PI staining based flow cytometry (reference value: 1.47 %); format: functional, Homo sapiens
[19] = tested on: HEL; assay: Induction of apoptosis in HEL cells assessed as late apoptotic cells at 0.4 uM incubated for 24 hrs by Annexin V/PI staining based flow cytometry (reference value: 1.98 %); format: functional, Homo sapiens
[20] = tested on: HEL; assay: Induction of cell cycle arrest in HEL cells assessed as cell accumulation at S phase at 0.1 uM incubated for 48 hrs by […] (reference value: 33.66 %); format: functional, Homo sapiens
[21] = tested on: HEL; assay: Induction of cell cycle arrest in HEL cells assessed as cell accumulation at S phase at 0.2 uM incubated for 48 hrs by […] (reference value: 33.66 %); format: functional, Homo sapiens
[22] = tested on: HEL; assay: Induction of cell cycle arrest in HEL cells assessed as cell accumulation at S phase at 0.4 uM incubated for 24 hrs by […] (reference value: 16.18 %); format: functional, Homo sapiens
[23] = tested on: HEL; assay: Induction of cell cycle arrest in HEL cells assessed as cell accumulation at G1 phase at 0.4 uM incubated for 48 hrs by […] (reference value: 54.17 %); format: functional, Homo sapiens
[24] = tested on: HEL; assay: Induction of cell cycle arrest in HEL cells assessed as cell accumulation at G1 phase at 0.4 uM incubated for 24 hrs by […] (reference value: 39.11 %); format: functional, Homo sapiens
[25] = tested on: HEL; assay: Induction of apoptosis in HEL cells assessed as necrotic cells at 0.2 uM incubated for 24 hrs by Annexin V/PI staining based flow cytometry (reference value: 1.61 %); format: functional, Homo sapiens
[26] = tested on: HEL; assay: Induction of cell cycle arrest in HEL cells assessed as cell accumulation at G1 phase at 0.1 uM incubated for 24 hrs by […] (reference value: 39.11 %); format: functional, Homo sapiens
[27] = tested on: MDA-MB-231
Description: Cytotoxicity against human MDA-MB-231 cells assessed as cell growth inhibition incubated for 72 hrs by MTT assay

[28] = tested on: HEL; assay: Induction of apoptosis in HEL cells assessed as viable cells at 0.2 uM incubated for 24 hrs by Annexin V/PI staining based flow cytometry (reference value: 94.94 %); format: functional; settings: Homo sapiens, read-out: Activity
[29] = tested on: HEL; assay: Induction of apoptosis in HEL cells assessed as necrotic cells at 0.4 uM incubated for 24 hrs by Annexin V/PI staining based flow cytometry (reference value: 1.61 %); format: functional, Homo sapiens
[30] = tested on: HEL; assay: Induction of apoptosis in HEL cells assessed as necrotic cells at 0.4 uM incubated for 48 hrs by Annexin V/PI staining based flow cytometry (reference value: 0.92 %); format: functional, Homo sapiens
[31] = tested on: HEL; assay: Induction of cell cycle arrest in HEL cells assessed as cell accumulation at G2/M phase at 0.1 uM incubated for 48 hrs by […] (reference value: 20.36 %); format: functional, Homo sapiens
[32] = tested on: HEL; assay: Induction of apoptosis in HEL cells assessed as late apoptotic cells at 0.2 uM incubated for 24 hrs by Annexin V/PI staining based flow cytometry (reference value: 1.98 %); format: functional, Homo sapiens
[33] = tested on: HEL; assay: Induction of apoptosis in HEL cells assessed as necrotic cells at 0.1 uM incubated for 24 hrs by Annexin V/PI staining based flow cytometry (reference value: 1.61 %); format: functional, Homo sapiens
[34] = tested on: HEL; assay: Induction of apoptosis in HEL cells assessed as viable cells at 0.1 uM incubated for 24 hrs by Annexin V/PI staining based flow cytometry (reference value: 94.94 %); format: functional; settings: Homo sapiens, read-out: Activity
[35] = tested on: HEL; assay: Induction of cell cycle arrest in HEL cells assessed as cell accumulation at G2/M phase at 0.4 uM incubated for 48 hrs by […] (reference value: 20.36 %); format: functional, Homo sapiens
[36] = tested on: HEL; assay: Induction of cell cycle arrest in HEL cells assessed as cell accumulation at G2/M phase at 0.1 uM incubated for 24 hrs by […] (reference value: 16.18 %); format: functional, Homo sapiens
[37] = Solubility of compound in PBS at pH 7.4 at 1.7 mg measured for 24 hrs by HPLC-UV analysis; format: physicochemical
[38] = tested on: HEL; assay: Induction of cell cycle arrest in HEL cells assessed as cell accumulation at G2/M phase at 0.2 uM incubated for 24 hrs by […] (reference value: 16.18 %); format: functional, Homo sapiens
[39] = tested on: SW480; assay: Cytotoxicity against human SW480 cells assessed as cell growth inhibition incubated for 72 hrs by MTT assay; format: functional, cell-based; settings: sw480
[40] = tested on: HEL; assay: Induction of apoptosis in HEL cells assessed as early apoptotic cells at 0.2 uM incubated for 24 hrs by Annexin V/PI staining based flow cytometry (reference value: 1.47 %); format: functional, Homo sapiens
[41] = tested on: HEL; assay: Induction of cell cycle arrest in HEL cells assessed as cell accumulation at S phase at 0.4 uM incubated for 48 hrs by […] (reference value: 33.66 %); format: functional, Homo sapiens
[42] = tested on: HEL; assay: Induction of apoptosis in HEL cells assessed as viable cells at 0.4 uM incubated for 24 hrs by Annexin V/PI staining based flow cytometry (reference value: 94.94 %); format: functional; settings: Homo sapiens, read-out: Activity
[43] = tested on: HEL; assay: Induction of apoptosis in HEL cells assessed as late apoptotic cells at 0.1 uM incubated for 24 hrs by Annexin V/PI staining based flow cytometry (reference value: 1.98 %); format: functional, Homo sapiens
[44] = tested on: HEL; assay: Induction of apoptosis in HEL cells assessed as early apoptotic cells at 0.4 uM incubated for 48 hrs by Annexin V/PI staining based flow cytometry (reference value: 1.62 %); format: functional, Homo sapiens
[45] = tested on: HEL; assay: Induction of apoptosis in HEL cells assessed as viable cells at 0.2 uM incubated for 48 hrs by Annexin V/PI staining based flow cytometry (reference value: 95.63 %); format: functional; settings: Homo sapiens, read-out: Activity
[46] = tested on: HEL; assay: Induction of apoptosis in HEL cells assessed as viable cells at 0.1 uM incubated for 48 hrs by Annexin V/PI staining based flow cytometry (reference value: 95.63 %); format: functional; settings: Homo sapiens, read-out: Activity

Structure (SMILES): COc1cc(OC)c2c(c1)O[C@@]1(c3ccc(OCCCCCN4CCN(C)CC4)cc3)[C@H](c3ccccc3)C[C@@H](O)[C@@]21O.O=C(O)/C=C/C(=O)O (racemic; form 2)
- Activity [1]: 7.65%
- Activity [2]: 3.11%
- Activity [3]: 43.16%
- Activity [4]: 18.31%
- Activity [5]: 3.45%
- Activity [6]: 10.08%
- Activity [7]: 1.34%
- Activity [8]: 27.85%
- Activity [9]: 62.59%
- Activity [10]: 39.19%
- Activity [11]: 50.73%
- IC50 [12]: 190 nM
- Activity [13]: 3.54%
- Activity [14]: 15.61%
- Activity [15]: 6.37%
- viability at 0.4 µM [16]: 68.9%
- Activity [17]: 1.02%
- Activity [18]: 2.17%
- Activity [19]: 2.1%
- Activity [20]: 30.25%
- Activity [21]: 19.87%
- Activity [22]: 27.85%
- Activity [23]: 66.15%
- Activity [24]: 54.17%
- Activity [25]: 1.68%
- Activity [26]: 39.54%
- IC50 [27]: > 1000 nM
- viability at 0.2 µM [28]: 95.2%
- Activity [29]: 1.12%
- Activity [30]: 2.21%
- Activity [31]: 25.52%
- Activity [32]: 1.66%
- Activity [33]: 1.96%
- viability at 0.1 µM [34]: 94.7%
- Activity [35]: 8.35%
- Activity [36]: 21.09%
- solubility at 24 h [37]: 12.5 mg/mL
- Activity [38]: 20.55%
- IC50 [39]: > 1000 nM
- Activity [40]: 1.5%
- Activity [41]: 19.87%
- viability at 0.4 µM [42]: 94.6%
- Activity [43]: 2.02%
- Activity [44]: 18.85%
- viability at 0.2 µM [45]: 82.9%
- viability at 0.1 µM [46]: 92%
